Values quoted from earlier work in US7927486B2, “Polymer modified porous substrate for solid phase extraction” (priority 2005, dated 2011).

Question: For CCCCNCC(O)c1ccc(O)cc1.CCCCNCC(O)c1ccc(O)cc1.O=S(=O)(O)O (stereo not shown) [Bamathan hemisulfate], which “Log P” value is on record?
Answer: The value was 1.29.
